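96-well plates; 48 h exposure; 5 concentrations. Endpoints by linear interpolation between flanking doses. Not reached: highest tested concentration assigned. GI50 = concentration required for 50% inhibition of growth. TGI: total growth inhibition.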
Key:
Test in all cases: NCI tumour cell line growth inhibition, 48 h
SNB-78 CNS = test system: SNB-78 CNS
DLD-1 colon = test system: DLD-1 colon
DMS 273 small cell lung = test system: DMS 273 small cell lung
MDA-MB-435 = test system: MDA-MB-435
MDA-N = test system: MDA-N
DU-145 prostate = test system: DU-145 prostate
CAKI-1 renal = test system: CAKI-1 renal
NCI/ADR-RES ovarian = test system: NCI/ADR-RES ovarian
T-47D breast = test system: T-47D breast
DMS 114 small cell lung = test system: DMS 114 small cell lung
XF 498 CNS = test system: XF 498 CNS
M19-MEL melanoma = test system: M19-MEL melanoma

SMILES	TGI (SNB-78 CNS)	TGI (DLD-1 colon)	TGI (DMS 273 small cell lung)	TGI (MDA-MB-435)	TGI (MDA-N)	TGI (DU-145 prostate)	TGI (CAKI-1 renal)	TGI (NCI/ADR-RES ovarian)	TGI (T-47D breast)	TGI (DMS 114 small cell lung)	TGI (XF 498 CNS)	TGI (M19-MEL melanoma)	other results
N.N.N.O=[N+]([O-])[O-].O=[N+]([O-])[O-].O=[N+]([O-])[O-].O=[N+]([O-])[O-].[Co+3]	> 100 µM	> 100 µM	> 100 µM	–	–	–	–	–	–	–	–	–	GI50 (SNB-78 CNS): > 100 µM; GI50 (DLD-1 colon): > 100 µM; GI50 (DMS 273 small cell lung): > 100 µM
COC(=O)C1C(C(=O)OC)N(Cc2ccccc2)C(=O)N1Cc1ccccc1 (configuration not stated)	–	–	–	> 100 µM	> 100 µM	> 100 µM	> 100 µM	> 100 µM	> 100 µM	–	–	–	–
CCOC(=O)c1csc(NC(=O)CCN(CC)CC)n1	–	–	–	> 100 µM	> 100 µM	> 100 µM	42.8 µM	> 100 µM	> 100 µM	–	–	–	–
C#CCCCCC#Cc1ccccc1C(=O)OC	–	> 100 µM	> 100 µM	–	–	–	–	–	–	60 µM	> 100 µM	–	–
CCCc1cc(=O)c2c(C)c3[nH]c4ccc(Cl)cc4c3c(C)c2[nH]1	–	–	–	3.11 µM	3.9 µM	18.9 µM	4.37 µM	10.2 µM	3.88 µM	–	–	–	–
O=C(O)CC/C(=N\Nc1nsc2ccccc12)c1ccccc1	> 100 µM	–	67.3 µM	–	–	–	–	–	–	82 µM	–	> 100 µM	–
C=C(C(=O)C(=O)Oc1ccc(Cl)cc1)C(=O)c1ccc(C)cc1	> 100 µM	99.3 µM	> 100 µM	–	–	–	> 100 µM	–	–	> 100 µM	> 100 µM	35.4 µM	–
C/C(CCOC1CCCCO1)=C(\C)[Si](C)(C)C (configuration not stated)	> 100 µM	> 100 µM	–	–	–	–	–	–	–	> 100 µM	> 100 µM	> 100 µM	–
CC(C)OP(=O)(OC(C)C)c1c(Nc2ccccc2)n[nH]c1N	–	–	–	> 100 µM	> 100 µM	> 100 µM	> 100 µM	> 100 µM	> 100 µM	–	–	–	–
O=C1C(Cl)=C(N2CCN(C3=C(Cl)C(=O)c4ccccc4C3=O)CC2)C(=O)c2ccccc21	1.56 µM	0.937 µM	5.44 µM	3.27 µM	3.29 µM	14.4 µM	3.48 µM	3.51 µM	2.06 µM	2.64 µM	2.66 µM	2.91 µM	–
COCCOCOc1ccc(OCc2ccccc2)cc1	> 100 µM	> 100 µM	> 100 µM	–	–	–	> 100 µM	> 100 µM	–	> 100 µM	> 100 µM	> 100 µM	–
CCN1c2ccccc2-n2c(C)nnc2-c2c1n[nH]c2-c1ccccc1	–	–	–	82.9 µM	> 100 µM	> 100 µM	–	73.1 µM	74.7 µM	–	–	–	–
CN(C)CCCOc1nc2c(c(=O)n(C)c(=O)n2C)n1C (tested in a mixture with another compound)	–	–	–	> 100 µM	–	39.5 µM	66.3 µM	> 100 µM	> 100 µM	–	–	–	–
CC1=C(O)C(=O)[C@@H]2O[C@@H]2C1=O	40.9 µM	21.7 µM	62.3 µM	–	–	–	16.7 µM	44.9 µM	–	28.4 µM	23.3 µM	28.9 µM	–
C=CCN1C(=O)/C(=C/c2ccccc2)N=C1SC1OC(COC(=O)c2ccccc2)C(OC(=O)c2ccccc2)C1OC(=O)c1ccccc1 (configuration not stated)	–	–	–	> 100 µM	–	> 100 µM	> 100 µM	> 100 µM	–	–	–	–	–
COc1ccc2[nH]c(O)c(/C=c3/cc4c(c(-c5cc(OC)c(OC)c(OC)c5)n3)=Nc3ccccc3-4)c2c1	–	–	–	> 100 µM	–	> 100 µM	> 100 µM	> 100 µM	> 100 µM	–	–	–	GI50 (MDA-MB-435): 3.48 µM; GI50 (DU-145 prostate): 88.2 µM; GI50 (CAKI-1 renal): > 100 µM; GI50 (NCI/ADR-RES ovarian): 3.3 µM; GI50 (T-47D breast): 28.5 µM
